One data set can be described thus: Stability in human serum. The procedure: Briefly, peptides were incubated at a final concentration of 30 μM in human serum (human male AB serum, Sigma-Aldrich) at 37° C. for 0, 1, 12 and 24 h. The reaction was stopped at designated times, with the serum proteins being denatured by addition of two volumes of acetonitrile (v/v). The samples were then spun at 17,000 g for 10 min and the amount of peptide in the supernatant was quantified using analytical HPLC. The percentage of peptide remaining at 1, 12 and 24 h was calculated using the area of the serum-treated peptide peak from 0 h as 100%.

A further data set addresses T1, Human β-FXIIa (Homo sapiens, UniProt P00748).
T1 construct: Human β-FXIIa was obtained from Molecular Innovations, together with human FXa, human FXIa, human α-thrombin, and human plasma kallikrein; purchased Molecular Innovations; host or cells: purified from human plasma
As to the kind of experiment: FXIIa competitive inhibition assay, colorimetric substrate Ac-QRFR-pNA. It is filed as biochemical. The protocol: (§1) The activity of acyclic and cyclic MCoFx1-5 and analogues thereof was assessed in competitive inhibition assays, as previously described in Swedberg et al. (2016) J Med Chem, 59: 7287-7292. Human β-FXIIa was obtained from Molecular Innovations, together with human FXa, human FXIa, human α-thrombin, and human plasma kallikrein. Human cationic trypsin and human plasmin were obtained from Sigma-Aldrich, and recombinant human matriptase was sourced from R&D Systems. Recombinant human urokinase (uPA) and recombinant human tissue plasminogen activator (tPA) were expressed in Expi293 cells, as previously described in Li et al. (2019) Chembiochem, 20: 46-50. FXIIa inhibition assays were performed in clear, low-binding 96-well plates using 250 μL (final volume) of assay buffer (0.1 M Tris-HCl pH 8.0, 0.1 M NaCl, 10 mM CaCl2 and 0.005% Triton X-100). Inhibitors were serially diluted and incubated with 10 nM FXIIa at room temperature to reach equilibrium. After adding 100 μM Ac-QRFR-pNA substrate (KM=162 μM), enzymatic activity was measured by monitoring release of the pNA moiety using a TECAN infinite M1000 Pro plate reader (A=405 nm, reading interval, 10 s; assay time course, 7 min). Assays were conducted in three times in duplicate. Substrate kinetic constants (Michaelis-Menten) and inhibition constants (Morrison K) were determined by non-linear regression using Prism 7 (GraphPad). Selectivity assays with off-target proteases were performed in a similar way, except that different concentrations of enzyme and substrate were used, as indicated in Table 16. For assays using a fluorescent substrate (peptide-4-methylcoumaryl-7-amide, MCA), black low-binding 96-well plates were used and activity was measured using a TECAN infinite M1000 pro plate reader (λex 360 nm, λem 460 nm, reading interval, 30 s; assay time course, 5-30 min).

Another data set addresses T2, bovine trypsin (Bos taurus, UniProt P00760).
T2 sequence (P00760 24-246): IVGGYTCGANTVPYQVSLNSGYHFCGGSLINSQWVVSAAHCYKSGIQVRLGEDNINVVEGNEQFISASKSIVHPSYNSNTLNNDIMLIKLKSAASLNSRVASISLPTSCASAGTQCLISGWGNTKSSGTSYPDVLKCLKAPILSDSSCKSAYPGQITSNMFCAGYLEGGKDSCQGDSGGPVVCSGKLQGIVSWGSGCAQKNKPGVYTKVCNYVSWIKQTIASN
As to the kind of experiment: Surface plasmon resonance binding to trypsin.

Data set [1] has as its target T3, biotinylated human β-FXIIa (Homo sapiens, UniProt P00748).
T3 construct: purchased Molecular Innovations
Briefly: Surface plasmon resonance binding to FXIIa. The protocol: Binding kinetics of each peptide towards biotinylated human β-FXIIa (Molecular Innovations) and non-labelled zymogen FXII (Haematologic Technologies) were determined using a Biacore T200 machine (Cytiva). For β-FXIIa binding measurements, the running buffer was HBS-EP+(10 mM HEPES, 150 mM NaCl, 3 mM EDTA and 0.05% (v/v) surfactant P20, pH 7.4). Biotinylated β-FXIIa was immobilized on a Sensor Chip CAP (Cytiva) using Biotin CAPture Reagent (Cytiva). A series of concentrations of each peptide were injected as analyte and the binding kinetics were modelled using a 1:1 binding model. Regeneration of sensor surface was performed after each measurement cycle. For FXII binding measurements, the running buffer was PBST (137 mM NaCl, 2.7 mM KCl, 10 mM Na2HPO4, 1.8 mM KH2PO4, 0.05% Tween-20). Non-labelled FXII was immobilized on a Sensor Chip CM5 (Cytiva) using Amine Coupling Kit (Cytiva), achieving a final immobilization level of 2500 RU. Each peptide was flowed through immobilized FXII at 5 μM for 60 s and allowed dissociation for 150 s.
On the technique in general: SPR reads the build-up and loss of mass on a sensor chip optically.

The target of the next data set is T4, Rec. human matriptase (Homo sapiens, UniProt Q9Y5Y6).
T4 construct: purchased R&D Systems
T4 sequence (Q9Y5Y6 615-855 limits assumed): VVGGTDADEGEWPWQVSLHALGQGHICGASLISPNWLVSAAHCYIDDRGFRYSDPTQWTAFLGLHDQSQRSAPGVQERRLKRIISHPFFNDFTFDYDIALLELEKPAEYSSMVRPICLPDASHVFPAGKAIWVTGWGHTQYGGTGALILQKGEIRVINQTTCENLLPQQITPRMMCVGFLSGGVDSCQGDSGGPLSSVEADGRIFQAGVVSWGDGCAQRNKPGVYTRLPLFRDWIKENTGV
As to the kind of experiment: Matriptase inhibition assay. It is filed as biochemical. The procedure: as §1

Another data set addresses T5, Rec. human uPA (Homo sapiens, UniProt P00749).
T5 construct: made in house; host or cells: Expi293 cells
As to the kind of experiment: uPA inhibition assay. It is filed as biochemical. The protocol:
as §1

In a further data set the target is T6, Rec. human tPA (Homo sapiens, UniProt P00750).
T6 construct: made in house; host or cells: Expi293 cells
As to the kind of experiment: tPA inhibition assay. It is filed as biochemical. The protocol:
as §1

A further data set has as its target T7, Human FXa (Homo sapiens, UniProt P00742).
T7 construct: Human β-FXIIa was obtained from Molecular Innovations, together with human FXa, human FXIa, human α-thrombin, and human plasma kallikrein; purchased Molecular Innovations; host or cells: purified from human plasma
Briefly: FXa inhibition assay. The format is biochemical. The protocol:
as §1

The next data set concerns the target T8, Human trypsin (Homo sapiens, UniProt P07477).
T8 construct: purchased Sigma-Aldrich; host or cells: purified from human tissue
As to the kind of experiment: Trypsin competitive inhibition assay. The format is biochemical. The procedure: as §1

Another data set deals with T9, Human thrombin (Homo sapiens, UniProt P00734).
T9 construct: Human β-FXIIa was obtained from Molecular Innovations, together with human FXa, human FXIa, human α-thrombin, and human plasma kallikrein; purchased Molecular Innovations; host or cells: purified from human plasma
As to the kind of experiment: Thrombin inhibition assay. The format is biochemical. The protocol: as §1

A further data set addresses T10, Human plasma kallikrein (Homo sapiens, UniProt P03952).
T10 construct: Human β-FXIIa was obtained from Molecular Innovations, together with human FXa, human FXIa, human α-thrombin, and human plasma kallikrein; purchased Molecular Innovations; host or cells: purified from human plasma
Briefly: Plasma kallikrein inhibition assay. The format is biochemical. The procedure:
as §1

In the next data set the target is T11, Human plasmin (Homo sapiens, UniProt P00747).
T11 construct: Human cationic trypsin and human plasmin were obtained from Sigma-Aldrich, and recombinant human matriptase was sourced from R&D Systems; purchased Sigma-Aldrich; host or cells: purified from human plasma
Briefly: Plasmin inhibition assay. The format is biochemical. The protocol:
as §1

The target in the next data set is T12, Human FXIa (Homo sapiens, UniProt P03951).
T12 construct: Human β-FXIIa was obtained from Molecular Innovations, together with human FXa, human FXIa, human α-thrombin, and human plasma kallikrein; purchased Molecular Innovations; host or cells: purified from human plasma
As to the kind of experiment: FXIa inhibition assay. It is filed as biochemical. The protocol:
as §1

Bridge positions count the residues as written; N and C are the ends. Ends that are not written are not given here. Peptide text beside a SMILES is read from it.

T10 sequence (P03952 391-638 limits assumed): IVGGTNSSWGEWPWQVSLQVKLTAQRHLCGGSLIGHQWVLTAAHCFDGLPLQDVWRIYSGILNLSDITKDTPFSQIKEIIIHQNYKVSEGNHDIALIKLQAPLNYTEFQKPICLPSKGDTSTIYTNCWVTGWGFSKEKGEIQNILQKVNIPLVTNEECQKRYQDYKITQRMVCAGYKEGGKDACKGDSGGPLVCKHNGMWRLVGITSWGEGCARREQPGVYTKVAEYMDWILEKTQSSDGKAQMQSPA
T10 sequence (P03952 20-390 partner limits assumed): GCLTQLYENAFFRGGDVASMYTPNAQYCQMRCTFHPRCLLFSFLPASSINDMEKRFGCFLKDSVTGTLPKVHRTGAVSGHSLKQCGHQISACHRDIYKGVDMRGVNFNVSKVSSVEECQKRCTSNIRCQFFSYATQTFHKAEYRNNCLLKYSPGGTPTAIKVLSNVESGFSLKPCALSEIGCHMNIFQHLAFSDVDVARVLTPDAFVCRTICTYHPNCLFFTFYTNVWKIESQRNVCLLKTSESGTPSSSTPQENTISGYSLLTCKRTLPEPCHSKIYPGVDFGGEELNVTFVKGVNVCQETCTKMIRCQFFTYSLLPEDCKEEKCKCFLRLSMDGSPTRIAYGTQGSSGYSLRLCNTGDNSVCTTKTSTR
T7 sequence (P00742 235-488 limits assumed): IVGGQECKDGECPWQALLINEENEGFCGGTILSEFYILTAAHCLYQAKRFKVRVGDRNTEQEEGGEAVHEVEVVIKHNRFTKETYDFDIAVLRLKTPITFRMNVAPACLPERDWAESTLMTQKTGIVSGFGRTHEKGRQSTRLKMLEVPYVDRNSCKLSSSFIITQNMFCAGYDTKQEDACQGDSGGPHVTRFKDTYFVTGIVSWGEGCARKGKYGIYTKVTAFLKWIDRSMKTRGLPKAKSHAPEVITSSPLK
T7 sequence (P00742 41-179 partner limits assumed): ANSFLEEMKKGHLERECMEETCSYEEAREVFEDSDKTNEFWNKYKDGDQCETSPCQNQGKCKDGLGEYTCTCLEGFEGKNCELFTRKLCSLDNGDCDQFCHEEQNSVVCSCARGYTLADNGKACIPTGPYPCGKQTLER
T6 sequence (P00750 36-562): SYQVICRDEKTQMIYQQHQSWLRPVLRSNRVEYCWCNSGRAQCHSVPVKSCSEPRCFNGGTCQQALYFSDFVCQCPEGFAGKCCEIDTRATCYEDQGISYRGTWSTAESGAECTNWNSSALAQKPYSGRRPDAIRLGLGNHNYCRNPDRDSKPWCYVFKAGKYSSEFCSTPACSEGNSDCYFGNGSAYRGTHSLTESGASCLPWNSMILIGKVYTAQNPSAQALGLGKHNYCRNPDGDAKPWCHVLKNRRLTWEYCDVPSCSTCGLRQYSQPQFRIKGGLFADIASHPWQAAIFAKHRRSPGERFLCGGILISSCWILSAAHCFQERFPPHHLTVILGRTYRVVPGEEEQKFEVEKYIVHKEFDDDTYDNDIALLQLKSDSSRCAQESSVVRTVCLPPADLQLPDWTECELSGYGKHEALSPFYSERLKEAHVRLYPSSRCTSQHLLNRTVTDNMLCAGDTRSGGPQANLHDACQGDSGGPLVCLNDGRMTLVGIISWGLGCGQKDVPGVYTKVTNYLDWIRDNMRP
T12 sequence (P03951 388-625 limits assumed): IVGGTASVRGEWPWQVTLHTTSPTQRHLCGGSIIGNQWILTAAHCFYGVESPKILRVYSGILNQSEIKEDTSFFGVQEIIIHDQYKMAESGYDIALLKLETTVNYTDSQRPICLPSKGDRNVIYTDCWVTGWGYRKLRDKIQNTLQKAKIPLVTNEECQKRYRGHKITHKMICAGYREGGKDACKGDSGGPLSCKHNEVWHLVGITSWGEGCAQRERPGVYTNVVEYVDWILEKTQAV
T12 sequence (P03951 19-387 partner limits assumed): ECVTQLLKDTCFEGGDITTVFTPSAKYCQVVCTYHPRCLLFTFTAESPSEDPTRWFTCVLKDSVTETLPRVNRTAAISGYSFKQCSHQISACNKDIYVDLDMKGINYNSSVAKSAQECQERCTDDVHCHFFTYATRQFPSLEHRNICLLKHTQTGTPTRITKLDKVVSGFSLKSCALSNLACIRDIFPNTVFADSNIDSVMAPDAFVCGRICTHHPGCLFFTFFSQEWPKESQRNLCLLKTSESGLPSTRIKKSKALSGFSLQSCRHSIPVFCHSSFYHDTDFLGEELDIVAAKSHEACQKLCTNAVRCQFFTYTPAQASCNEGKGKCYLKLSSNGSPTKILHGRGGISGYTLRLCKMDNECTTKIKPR
T1 sequence (P00748 373-615 limits assumed, other chains not shown): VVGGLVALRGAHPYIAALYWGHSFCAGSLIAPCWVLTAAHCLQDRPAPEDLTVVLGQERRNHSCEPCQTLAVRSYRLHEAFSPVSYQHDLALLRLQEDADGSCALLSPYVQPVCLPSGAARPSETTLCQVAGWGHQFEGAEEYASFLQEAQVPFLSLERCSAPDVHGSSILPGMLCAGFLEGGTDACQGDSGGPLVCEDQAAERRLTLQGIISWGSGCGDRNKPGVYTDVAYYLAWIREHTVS
T11 sequence (P00747 581-810 limits assumed): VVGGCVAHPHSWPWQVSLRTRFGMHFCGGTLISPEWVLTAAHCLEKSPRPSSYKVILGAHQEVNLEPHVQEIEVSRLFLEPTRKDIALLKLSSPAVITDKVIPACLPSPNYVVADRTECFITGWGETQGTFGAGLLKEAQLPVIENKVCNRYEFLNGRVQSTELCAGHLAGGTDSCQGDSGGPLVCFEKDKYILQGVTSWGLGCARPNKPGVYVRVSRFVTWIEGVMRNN
T11 sequence (P00747 97-580 partner limits assumed): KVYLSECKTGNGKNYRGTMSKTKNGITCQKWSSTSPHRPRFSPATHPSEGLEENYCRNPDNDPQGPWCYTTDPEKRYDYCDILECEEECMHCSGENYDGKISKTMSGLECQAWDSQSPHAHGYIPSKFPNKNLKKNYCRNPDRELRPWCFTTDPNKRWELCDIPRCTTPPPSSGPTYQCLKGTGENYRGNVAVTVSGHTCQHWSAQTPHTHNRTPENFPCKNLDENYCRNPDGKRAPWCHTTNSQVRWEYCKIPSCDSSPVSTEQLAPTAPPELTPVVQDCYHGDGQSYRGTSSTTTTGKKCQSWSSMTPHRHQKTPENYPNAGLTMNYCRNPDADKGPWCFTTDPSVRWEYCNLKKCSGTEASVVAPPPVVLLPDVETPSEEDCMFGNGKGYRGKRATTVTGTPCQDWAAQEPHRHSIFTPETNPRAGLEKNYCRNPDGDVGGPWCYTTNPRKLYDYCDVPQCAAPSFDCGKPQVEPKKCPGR
T3 sequence (P00748 373-615 limits assumed, other chains not shown): as the sequence (P00748 373-615 limits assumed, other chains not shown) above

As usually defined, the Ki is a dissociation constant, usually derived from enzyme kinetics or from competition with a known ligand. In general, Kd refers to the concentration at which binding is half-saturated. A higher Kd goes with weaker binding. Turning to `CC[C@H](C)[C@H](NC(=O)CNC(=O)CNC(=O)[C@@H](N)CC(=O)O)C(=O)N[C@H]1CSSC[C@@H]2NC(=O)[C@H](C)NC(=O)CNC(=O)[C@@H]3CCCN3C(=O)[C@@H]3CSSC[C@@H](C(=O)NCC(=O)N[C@@H](CO)C(=O)NCC(=O)N[C@@H](Cc4ccc(O)cc4)C(=O)O)NC(=O)[C@H](Cc4ccccc4)NC(=O)[C@H](CCCNC(=N)N)NC(=O)[C@H]([C@@H](C)O)NC(=O)[C@H](C)NC(=O)[C@H](CCCNC(=N)N)NC(=O)[C@H](CSSC[C@H](NC(=O)[C@H](CC(C)C)NC(=O)[C@H](CCCNC(=N)N)NC(=O)CNC(=O)[C@H]([C@@H](C)CC)NC(=O)[C@H](CCCNC(=N)N)NC(=O)[C@@H]4CCCN4C1=O)C(=O)N[C@@H](CCCNC(=N)N)C(=O)N[C@@H](CCCNC(=N)N)C(=O)N[C@@H](CC(=O)O)C(=O)N[C@@H](CO)C(=O)N[C@@H](CC(=O)O)C(=O)N3)NC(=O)[C@H]([C@@H](C)CC)NC2=O` [MCoFx1 acyclic] (H-DGGICPRIGRLCRRDSDCPGACICRATRFCGSGY-OH; disulfide 5-22, 12-24, 18-30), the “resistance to serum proteases (in words)” value in “Stability in human serum” (human serum, 37° C., up to 24 h) is reported as “highly resistant to serum proteases”. This compound registered a Ki at Human β-FXIIa of 0.73 ± 0.2 nM. Moreover, the results for the Kd (on bovine trypsin; in [1]) were 59.6 nM and 1.89 ± 0.04 nM, respectively.
For orientation: IC50 means the point on the concentration scale where inhibition reaches its midpoint. A word on the inhibition: it is the change of the read-out against control, counted positive when it falls. Regarding `CC[C@H](C)[C@@H]1NC(=O)[C@@H]2CSSC[C@@H]3NC(=O)[C@H](C(C)C)NC(=O)CNC(=O)CNC(=O)[C@H](CC(=O)O)NC(=O)[C@H](CO)NC(=O)CNC(=O)[C@H](CO)NC(=O)CNC(=O)[C@@H]4CSSC[C@H](NC(=O)[C@H](CC(=O)O)NC(=O)[C@H](CO)NC(=O)[C@H](CC(=O)O)NC(=O)[C@H](CCCNC(=N)N)NC(=O)[C@H](CCCNC(=N)N)NC(=O)[C@H](CSSC[C@H](NC1=O)C(=O)N[C@@H](CCCNC(=N)N)C(=O)N[C@@H](C)C(=O)N[C@@H]([C@@H](C)O)C(=O)N[C@@H](CCCNC(=N)N)C(=O)N[C@@H](Cc1ccccc1)C(=O)N4)NC(=O)[C@H](CCCCN)NC(=O)[C@H](CCCCN)NC(=O)[C@H](CC(C)C)NC(=O)[C@H]([C@@H](C)CC)NC(=O)[C@H](CCCCN)NC(=O)[C@@H]1CCCN1C3=O)C(=O)N1CCC[C@H]1C(=O)NCC(=O)N[C@@H](C)C(=O)N2` [cMCoTI-fxL5] (cyclo(ACICRATRFCGSGSDGGVCPKILKKCRRDSDCPG); disulfide 2-19, 4-26, 10-32), the inhibitory constant (Ki) on Rec. human matriptase was 17 nM; at Human trypsin, 0.08 nM; at Human β-FXIIa, 66 nM; at Human plasmin, 31 nM. The half-inhibitory concentration (IC50) at Rec. human uPA, against Rec. human tPA, against Human FXa, against Human thrombin, against Human plasma kallikrein and at Human FXIa was more than 5000 nM in each case. The inhibition at 5 µM was found to be 0% on Rec. human uPA (read-out: percent inhibition uPA); 1% on Rec. human tPA (read-out: percent inhibition tPA); 0% at Human FXa (read-out: percent inhibition FXa); 3% at Human thrombin (read-out: percent inhibition Thrombin); 0% at Human plasma kallikrein (read-out: percent inhibition Plasma kallikrein); 1% on Human FXIa (read-out: percent inhibition FXIa).
As to EAIYAAPFAKKK [reference compound], in “Stability in human serum”, the “time to degradation in human serum” value is on record as not above 1 h.

(Values after patent US20240344241A1, “PROTEINACEOUS MOLECULES AND USES THEREFOR” (THE UNIVERSITY OF QUEENSLAND, priority 2021, published 2024).)
